The results in this text go back to patent publication US6770303B1, “Use of antifungal and/or antibacterial and/or antiviral compounds” (priority 1998, dated 2004).

Entries after “also recorded” stand apart in the source; their conditions may differ. Like-named read-outs stand apart in the source and are kept apart here.

Data set [1] deals with lipoxygenase (LOX). In words: LOX activity in tobacco cell cultures after potentiator pretreatment and elicitation. The conditions noted are these: for LOX activity relative to the corresponding control: 18 h pretreatment; for LOX activity, potentiator applied alone / Effect on LOX activity, potentiator in itself: no elicitor; for Effect on LOX activity, potentiator in itself: conclusion of Example 1. In kind it is cell-based, Nicotiana tabacum. The method, then: Measurement of the activity of LOX (lipoxygenase) which is a key enzyme in the synthesis of jasmonic acid, another signal molecule.
(§1) The cell suspensions used are suspensions of Nicotiana tabacum BY (bright yellow) obtained from Washington State University (Pullman, USA). They are cultured in the dark, at 24° C. with agitation (120 rpm) and subcultured every 7 days by transferring 10 ml of culture into 70 ml of fresh medium.
(§2) The cells are pretreated 5 days after subculturing (end of the exponential growth phase) and elicited on the 6th day. Two hours before pretreatment, 10 ml of cells are transferred into 25 ml conical flasks. For the phenylalanine ammonia lyase (PAL) and lipoxygenase (LOX) activity analyses and the determination of the salicylic acid (SA), the cells are harvested at the desired time by filtration on Whatman 3 M paper, frozen in liquid nitrogen and stored at −80° C. until the analysis.
The cells (250 mg) are ground in 0.5 ml of extraction buffer in the presence of quartz.
The ground mixture is centrifuged for 15 min at 4° C. and 13,000 rpm. 2.87 ml of 0.1 M pH 6.8 Tris buffer are added to the cell extract, followed by 30 μl of 10 mM linolenic acid. After stirring, the change in the OD is monitored at 234 nm.
(§3) In all cases, the pretreatment with the potentiator is carried out 18 hours before the elicitor treatment.
[…] The controls corresponding to a potentiation alone or an elicitation alone are systematically present for each sample taken.

Data set [2] concerns phenylalanine ammonia lyase (PAL). Briefly: PAL activity in tobacco cell cultures after potentiator pretreatment and elicitation. It is filed as cell-based, Nicotiana tabacum. As for the experimental part: Measurement of the activity of PAL (phenylalanine ammonia lyase): key enzyme in the phenylpropanoid pathway and more particularly in the lignification involved in defense reactions in plants (most particularly in monocotyledon plants).
as §1, §2
The cells (0.5 g) are ground in 0.1 M pH 8.8 borate buffer in the presence of active charcoal and quartz. The grinding ratio is 1/5 (w/v). After centrifugation, 100 μl of cell extract are incubated for 1 h at 37° C. in the presence of 200 μl of 0.1 M pH 8.8 borate buffer and 100 μl of a mixture of 0.1 M pH 8.8 borate buffer and 300 μM L-phenylalanine (labelled and cold mixture); the final solution has a specific activity of 810,000 cpm/ml.
The reaction is quenched by adding a few drops of 9 N H2SO4. 2 ml of H2O are added. The reaction products are extracted by adding 2 ml of an ether/cyclohexane mixture (1/1, v/v). Since the phenylalanine is insoluble in this mixture, the reaction is counted on 1 ml in the presence of “multi-purpose” scintillation liquid.
as §3
The samples for analysing the physiological effects are taken 4 hours, 12 hours or 24 hours after elicitation. The controls corresponding to a potentiation alone or an elicitation alone are systematically present for each sample taken.

In data set [3] the test system is salicylic acid (SA). In words: Salicylic acid (SA) accumulation in tobacco cell cultures. It is filed as cell-based, Nicotiana tabacum.
Protocol: The samples (0.5 g) of tobacco cells or leaves are ground in liquid nitrogen and grinding is then continued in the presence of 0.8 ml of 90% methanol. A known amount of ^14C-labelled SA (1 nCi, 54 mCi/mol, Sigma) is then added in order to estimate the yield for the recovery of the endogenous SA. The amount of labelled SA added is less than the detection threshold for the analysis. […]
The samples are brought to pH 2 by addition of 2 M HCl and are then heated at 80° C. for one hour. […] 20 ml of this mixture, to which are added 3 ml of scintillation liquid (Ready Gel, Beckmann), are taken for counting of the residual radioactivity, which allows calculation of the SA recovery yield. The contents of total SA determined correspond to the sum of the SA contents in free form and of the SA contents in conjugated form, the SA being released during the hydrolysis.
The elution is programmed on a Waters HPLC system in an isocratic system for 10 min. […] The SA is quantified by fluorometry (λ excitation=315 nm, λ emission=405 nm). […] The amounts of SA injected are calculated by means of comparing the area of the peaks corresponding to SA with that of the standard molecule injected. The SA contents in the samples are then calculated, taking the recovery yield into account. […]
Data set [4] has as its system Erysiphe cichoracerum. In words: Open-field trial on powdery mildew of melon by foliar treatment. Conditions: Agrimer 540 1 l/ha. In kind it is in vivo. The method, then: Open-field Trial on Powdery Mildew (Erysiphe cichoracerum) of Melon (Cucumis melo, Rochet Variety) by Foliar Treatment.
(§4) The fungicide used is fosetyl-Al (WG applied at 1.25 kg/ha, i.e. 1000 g/ha of active material) and the algal extract (solution LC, 1 l/ha) is Agrimer 540 from the company Agrimer.
All of these products are used at a dose of 1000 g/ha and the percentage of plants attacked by the disease is determined 15 days after two treatments T1 and T2 (carried out with an interval of 7 days).

Data set [5] relates to tobacco cell cultures. It is filed as cell-based, Nicotiana tabacum. The source says:
Fosetyl-Al and phosphorous acid have mainly been selected as potentiators in the biological experimentation, but, for reasons of toxicity of fosetyl-Al on tobacco cell cultures, we replaced it with fosetyl sodium in the cell tests.

Data set [6] relates to Erysiphe graminis. Briefly: Open-field test on powdery mildew of wheat by foliar treatment. In kind it is in vivo. The conditions noted are these: winter wheat, fosetyl-Al 1000 g/ha a.m., Agrimer 540 1 l/ha. As for the experimental part: Open-field Test on Powdery Mildew (Erysiphe graminis) of Wheat (Triticum aestivum, Winter Variety) by Foliar Treatment.
as §4
All these products are used at a rate of 1000 g/ha and the percentage of plants attacked (% of leaves destroyed) by the disease is determined, on the one hand on a foliar stage treated semi-curatively (reading taken 22 days after the treatment T), and on the other hand on a foliar stage treated curatively (reading taken 27 days after the treatment T).

[7] abbreviates: cells potentiated and elicited with a pectin oligomer, compared with the other conditions.

Take `OP(O)O` [H3PO3, phosphorous acid]: the “LOX activity relative to the corresponding control” value in data set [1] (measured 12 h after elicitation with 2 nM β-megaspermine) is recorded as “about 28 times”. The “LOX activity relative to the corresponding control” value in data set [1] (measured 21 h after elicitation with 10 μg/ml oligosaccharide elicitor of β-glucan type) is listed as “about 4 times”. Further, the “LOX activity, potentiator applied alone” value in data set [1] (30 h (18 h of pretreatment+12 h) after application) is “No inductive effect”. Also, the “LOX activity, potentiator applied alone” value in data set [1] (39 h (18 h of pretreatment+21 h) after application) is “mild inductive effect”. Further, the “Effect on LOX activity, potentiator in itself” value in data set [1] is given as “do not in themselves have any effect”. Moreover, in data set [2], the “Effect of conditioning on PAL activity after elicitation” value is on record as “strong stimulation of the PAL activity; also recorded: greater than that observed in the unconditioned cells”; the “Effect of pretreatment on induction of PAL activity by the elicitor” value is recorded as “markedly amplifies the response to the elicitor”; the “Induction of PAL activity, potentiator applied alone” value is listed as “No significant inductive effect; also recorded: do not in themselves have any effect”; the “PAL activity of potentiated and elicited cells (FIG. 21)” value (“PAL activity … (FIG. 21)” below) is given as “much higher”. In addition, in data set [2], the “PAL activity of pretreated cells versus unconditioned cells” value is on record as “always greater than that observed in the unconditioned cells” and the “PAL activity relative to the level of the unconditioned cells” value is 4 times. Besides, in data set [3], the “Effect on synthesis of SA, potentiator in itself” value was “do not in themselves have any effect” and the “Rate of synthesis of SA relative to unconditioned cells” value is “large increase”.
On to `CCO[PH](=O)O` [fosetyl-Na], for which the “Effect on LOX activity, potentiator in itself” value in data set [1] is recorded as “do not in themselves have any effect”. In data set [2] (5 mM conditioning 18 h, then 2 nM β-megaspermine (FIG. 9)), the “PAL activity of pretreated cells versus unconditioned cells” value was “always greater than that observed in the unconditioned cells”. In data set [2] (5 mM conditioning 18 h, then 20 μg/ml pectin oligomers), the “Effect of conditioning on PAL activity after elicitation” value is on record as “maintains the PAL activity at a high level 11 h after the elicitation”. The “PAL activity … (FIG. 21)” value in data set [2] (setting [7]) is on record as “much higher”. The “Induction of PAL activity, potentiator applied alone” value in data set [2] (no elicitor) was “No significant effect; also recorded: do not in themselves have any effect”. In addition, in data set [3] (no elicitor, conclusion of Example 1), the “Effect on synthesis of SA, potentiator in itself” value was “do not in themselves have any effect”.
As for `CCO[PH](=O)O` [Fosetyl-Al, fosetyl-Al], the “percentage of plants attacked by the disease, % at T2 + 15 days” value in data set [4] (T2 7 days after T1, fosetyl-Al 1000 g/ha a.m., untreated control 95.0) was 80.0%. For the same compound, the “percentage of plants attacked by the disease, % at T1 + 15 days” value in data set [4] (fosetyl-Al 1000 g/ha a.m., untreated control 91.7) amounted to 80.0%. Further, the “Toxicity on tobacco cell cultures” value in data set [5] is reported as “toxicity”. The “% of leaves destroyed at T + 22, semi-curative” value in data set [6] (untreated control 91.1) is 77.8%. Besides, the “% of leaves destroyed at T + 27, curative” value in data set [6] (untreated control 100) worked out at 100%.
Regarding `CSC(=O)c1cccc2nnsc12` [BTH, reference compound], in data set [2] (setting [7]), the “PAL activity … (FIG. 21)” value was “much higher”.
